Target: Bovine chymotrypsin (Bos taurus, UniProt P00766)
Assay: Inhibition of chymotrypsin, Ki
Assay type: biochemical
Conditions: Chymotrypsin (5 nM)

Ki: 6 nM
Compound: CC[C@H](C)[C@H](N)C(=O)N[C@@H](Cc1c[nH]cn1)C(=O)N[C@@H](CC(=O)O)C(=O)N[C@@H](Cc1ccccc1)C(=O)N[C@H]1CSSC[C@@H](C(=O)N[C@@H](C)C(=O)N[C@H](C(=O)N[C@H](C(=O)O)C(C)C)[C@@H](C)O)NC(=O)[C@H](CCCCN)NC(=O)[C@H](CCCCN)NC(=O)[C@H](CC(C)C)NC(=O)[C@@H]2CSSC[C@@H]3NC(=O)[C@H](CO)NC(=O)CNC(=O)[C@H](CC(=O)O)NC(=O)[C@H]([C@@H](C)O)NC(=O)[C@H](C(C)C)NC(=O)[C@H](CC(N)=O)NC(=O)[C@H](Cc4ccc(O)cc4)NC(=O)[C@H](Cc4c[nH]c5ccccc45)NC(=O)[C@H](Cc4c[nH]c5ccccc45)NC(=O)[C@H](CCCNC(=N)N)NC(=O)[C@@H]4CCCN4C(=O)[C@H](CCSC)NC(=O)[C@H](CO)NC(=O)[C@H](C)NC(=O)[C@H](CCCNC(=N)N)NC(=O)[C@H](CSSC[C@H](NC(=O)CNC(=O)CNC(=O)[C@H](Cc4ccc(O)cc4)NC(=O)[C@H](C(C)C)NC(=O)[C@H](Cc4ccccc4)NC(=O)[C@H](CC(C)C)NC(=O)[C@H](CCC(N)=O)NC3=O)C(=O)N[C@@H](CC(=O)O)C(=O)NCC(=O)N[C@@H](CC(N)=O)C(=O)N[C@@H](CO)C(=O)N[C@@H](CC(N)=O)C(=O)N[C@@H](CC(N)=O)C(=O)N[C@@H](Cc3ccc(O)cc3)C(=O)N[C@@H](CC(C)C)C(=O)N[C@@H]([C@@H](C)O)C(=O)N[C@@H](CCCCN)C(=O)N[C@@H](CCC(=O)O)C(=O)N[C@@H](CCC(=O)O)C(=O)N2)NC(=O)[C@H](CCCNC(=N)N)NC(=O)CNC(=O)[C@H](C(C)C)NC(=O)[C@H](C(C)C)NC(=O)[C@H](CCCCN)NC(=O)[C@H](CO)NC(=O)[C@H](C(C)C)NC(=O)[C@H](CC(C)C)NC1=O [bikunin (7-64)]

— patent US20070140979A1, “Method for accelerating the rate of mucociliary clearance” (BAYER AKTIENGESELLSCHAFT, priority 1998, published 2007)
